Tested on: LPS mouse
Test: LPS-induced inflammation in C57BL/6J male mouse, liver gene expression
Format: in vivo
Conditions: AzA 100 mg/kg, LPS 10 mg/kg intraperitoneally, liver 16 hours after LPS
Protocol: Eight-week-old C57BL/6J male […] were purchased from Samtako (Gyeonggi-do, Korea). All experiments were carried out according to protocols approved by the Animal Experiment Committee of Korea University (Protocol No. KUIACUC-20090420-4). Mice were maintained under a 12-hour photoperiod at 21 to 25° C. and relative humidity of 50% to 60%. In normal groups and LPS-induced groups, 100 μL of deionized water was administered to each mouse using an oral sonde for 4 days, and 100 μL of LPS was intraperitoneally injected at a dose of 10 mg/kg one hour after the administration with deionized water on the last day, Day 4. In a group into which LPS was administered after the AzA administration, each mouse was orally administered 100 μL of AzA at a dose of 100 mg/kg for 4 days, and intraperitoneally injected with 100 μL of 10 mg/kg LPS one hour after the AzA administration on the last day, Day 4. Sixteen hours after the LPS intraperitoneal injection, the mice were anesthetized with avertin, and dissected to extract liver tissue. The liver tissue was obtained, immediately stored in liquid nitrogen, and then stored at −80° C.
1 μg of RNA extracted from the stored liver tissue was used to synthesize cDNA using a ReverTra Ace® qPCR RT kit (TOYOBO, Osaka, Japan). […]

SMILES: O=C(O)CCCCCCCC(=O)O [AzA, nonanedioic acid]
- gene expression levels of inflammatory cytokines IL-6 and TNF-α in liver tissue: tendency of reduction in inflammatory responses

Source: US10786475B2, “Method for preventing, treating, or improving fatty liver by administering effective amounts of azelaic acid to a subject” (Korea University Research and Business Foundation, priority 2018, dated 2020)
